Assay results reported in patent US9623025B2 (priority 2009, dated 2017).

Target: hCA IX (Homo sapiens, UniProt Q16790)
Test: biochemical

Cc1cn(-c2cc(NC(=O)c3ccc(C)c(Nc4nccc(-c5cccnc5)n4)c3)cc(C(F)(F)F)c2)cn1 [Nilotinib, 4-methyl-3-[[4-(3-pyridinyl)-2-pyrimidinyl]amino]-N-[5-(4-methyl-1H-imidazol-1-yl)-3-(trifluoromethyl)phenyl] benzamide]
Ki: 41.9 to 75.7 nM
